{"source": "patent US9844546B2", "about": "“Antibody against human HIF hydroxylase” (OXFORD UNIVERSITY INNOVATION LIMITED, priority 2001, dated 2017)", "system": "Hep3B and U2OS cells", "test": "Immunoblot of HIF-1α and CA-9 in cells exposed to inhibitor", "assay_type": "cell-based, human", "conditions": "0.1 or 1 mM, 6 hours; for HIF-1α level (immunoblot): normoxic culture", "from_the_text": "We went on to test a series of 2-oxoglutarate analogues which act as competitive inhibitors of this class of enzyme (29) for ability to inhibit HIF-PH as assessed by the ability of cell extracts to modify either HIF polypeptide (19:WT) or a HIF fusion protein (Gal/HIF-1α549-582/VP16) so as to promote pVHL capture. Concordant results were obtained with both sources of HIF sequence. In one such experiment the effect of N-oxalylglycine on pVHL capture by a biotinylated HIF polypeptides as substrate was monitored. The WT:19 and 19:Pro564Hyp polypeptides described above were used as substrates. […] Inhibition by N-Oxalylglycine was overcome by addition of 5 mM 2-oxoglutarate. As previously, 19:Pro564Hyp captured pVHL efficiently without modification by cell extract, and this was not influenced by exposure to N-oxalylglycine. […] We also used a 2-oxoglutarate dependent dioxygenase, phytanoyl-CoA α-hydroxylase (30), together with a readily available unnatural substrate (isovaleryl CoA) (31) to deplete the cell extract of 2-oxoglutarate produced by the citric acid cycle; as predicted, this prevented the subsequent modification of HIF polypeptide. The effect of dimethyl-oxalyglycine on HIF-1α expression was also studied. HIF-1α immunoblot analysis of extracts of Hep3B and U2OS cells exposed to dimethyl-oxalylgylcine (0, 0.1 or 1.0 mM) for 6 hours was carried out.\nHep3B and U2OS cells were exposed to either 0.1 mM or 1 mM dimethyloxalylglycine for 6 hours, harvested and assayed by immunoblotting (Western blotting) for changes in the level of HIF-1α and CA-9 expression. Controls, where no inhibitor was added, were also performed. […] Upregulation of HIF-1α increased with increasing concentration of dimethyloxalylglycine, whilst the level of CA-9 expression was similar after exposure to both 0.1 and 1 mM of dimethyloxalylglycine.", "note": "Entries after “also recorded” stand apart in the source; their conditions may differ.", "data": [{"smiles": "COC(=O)CNC(=O)C(=O)OC", "note": "[dimethyloxalylglycine]", "values": [{"measurement": "CA-9 expression (immunoblot)", "value": "Clear upregulation"}, {"measurement": "HIF-1α level (immunoblot)", "value": "increase intracellular levels of HIF-1; also recorded: Clear upregulation"}, {"measurement": "HIF-1α level (immunoblot)", "setting": "listed as dimethyl-oxalylgylcine", "value": "strongly induced"}]}]}
